Values quoted from earlier work, collected in patent US20060193845A1, “Combination therapy for controlled carbohydrate digestion” (ELIXIR PHARMACEUTICALS, INC., priority 2004, published 2006).

- solubility in water: soluble
SMILES: OCCN1C[C@H](O)[C@@H](O)[C@H](O)[C@H]1CO [Miglitol, 3,4,5-piperidinetriol, 1-(2-hydroxyethyl)-2-(hydroxymethyl)-, [2R-(2α,3β,4α,5β)]]
